# Test results as given in paper PMC5735376, “Dual Level Statistical Investigation of Equilibrium Solubility in Simulated Fasted and Fed Intestinal Fluid” (Molecular Pharmaceutics, 2017).
# Where two headings read alike, the source gives them in different places.
# Legend:
# [1] = Equilibrium solubility in simulated intestinal fluid, dual level DoE, fasted arm; format: physicochemical; settings: for statistical significance of DoE factor BS:PL on equilibrium solubility / statistical significance of DoE factor bile salt on equilibrium solubility / statistical significance of DoE factor cholesterol on equilibrium solubility / statistical significance of DoE factor lecithin on equilibrium solubility / statistical significance of DoE factor monoglyceride on equilibrium solubility / statistical significance of DoE factor pH on equilibrium solubility / statistical significance of DoE factor sodium oleate on equilibrium solubility: fasted, current study (Figure 3)
# Description: (§1) For each media parameter (bile salt, lecithin, sodium oleate, monoglyceride, cholesterol, pH and BS: PL ratio) lower and upper limit concentration values for fasted and fed states were defined, Table 1. Using Minitab 17.2.1 and a custom experimental design, a 1/16 of the full factorial DoE with the seven factors and two levels (lower and upper limits) was constructed (8 experiments around the upper and lower levels plus two center points) separately for the fasted and the fed states. These two tables were then applied as an input for a factorial custom design of experiment which combined the fasted and fed using all 20 data points to provide an overall analysis. The study therefore consists of three arms, two smaller (10 data point) fasted and fed arms, which are then merged into a larger (20 data point) combined arm.
# (§2) When designing and analyzing the DoE, only a factor’s main effects and 2 way interactions have been considered and 3 way interactions or more were not included. For each DoE the magnitude for each factor’s effect on equilibrium solubility was determined by the standardized effect value for all of the individual factors and the significant 2-way interactions. This value was used to articulate whether these factors are increasing or decreasing drug solubility.
# (§3) The solution was prepared by the addition of an excess amount (above the estimated solubility) of solid for each compound investigated to a centrifuge tube (15 mL Corning Centristar cap, polypropylene RNase/DNase free, nonpyrogenic) followed by the addition of each component of the simulated intestinal fluid media according to the run order generated by the DoE. After all of the media components were added, pH was adjusted to 5, 6, or 7 according to the run order using 0.1 M HCl or 0.1 M KOH and tubes were capped and placed on an orbital shaker (OS 5 basic Yellowline, IKA, Germany) for 1 h after which the pH was readjusted if required. The 20 different tubes were then shaken in a tube rotator for 24 h at 40 rpm at 37 °C to simulate intestinal fluid conditions. After 24 h, a 1 mL amount was taken from each of the 20 tubes and transferred to a 1.5 mL Eppendorf tube then centrifuged at 15 000 rpm for 5 min. Following centrifugation 0.5 mL of the supernatant solution was transferred to an HPLC vial to analyze drug solubility using HPLC (Table 4).
# [2] = Equilibrium solubility in simulated intestinal fluid, dual level DoE, fed arm; format: physicochemical; settings: fed, current study (Figure 3)
# Description: as §1, §2, §3
# [3] = Equilibrium solubility in simulated intestinal fluid, dual level DoE, combined fasted and fed arm; format: physicochemical; settings: for significant DoE factors influencing solubility: combined arm (seven possible factors per drug), significance ±2; for significant two way factor interactions on solubility: eight two way interactions, Figure 4
# Description: as §1, §2, §3
# [4] = Statistical comparison of equilibrium solubility data sets (Mann-Whitney test / two-sample t-test); format: physicochemical; settings: for statistical comparison of fasted against fed equilibrium solubility: current dual level DoE, where significant, fasted solubility lower than fed; for statistical comparison of dual level fasted with published fasted equilibrium solubility: current fasted arm vs published fasted DoE
# Description: The Kolmogorov normality test was used in Minitab to assess the normality distribution of each data set. A Mann–Whitney test was used to evaluate the median between two data sets (not normally distributed) and the two-sample t-test was used to evaluate the mean of two data sets (normally distributed).
# [5] = parameters: method as in ref 13, Figure 2; settings: fasted, published; Figure 2; cited from earlier work
# [6] = parameters: method as in ref 14, Figure 2; settings: fed, published; Figure 2; cited from earlier work
# [7] = cited from earlier work
statistical significance of DoE factor BS:PL on equilibrium solubility [1],statistical significance of DoE factor bile salt on equilibrium solubility [1],statistical significance of DoE factor cholesterol on equilibrium solubility [1],statistical significance of DoE factor lecithin on equilibrium solubility [1],statistical significance of DoE factor monoglyceride on equilibrium solubility [1],statistical significance of DoE factor pH on equilibrium solubility [1],statistical significance of DoE factor sodium oleate on equilibrium solubility [1],statistical significance of DoE factor BS:PL on equilibrium solubility [2],statistical significance of DoE factor bile salt on equilibrium solubility [2],statistical significance of DoE factor cholesterol on equilibrium solubility [2],statistical significance of DoE factor lecithin on equilibrium solubility [2],statistical significance of DoE factor monoglyceride on equilibrium solubility [2],statistical significance of DoE factor pH on equilibrium solubility [2],statistical significance of DoE factor sodium oleate on equilibrium solubility [2],statistical comparison of fasted against fed equilibrium solubility [4],SMILES,statistical significance of DoE factor bile salt on equilibrium solubility [5],statistical significance of DoE factor lecithin on equilibrium solubility [5],statistical significance of DoE factor pH on equilibrium solubility [5],statistical significance of DoE factor sodium oleate on equilibrium solubility [5],statistical significance of DoE factor bile salt on equilibrium solubility [6],further results
NS ^e,NS ^e ^g,NS ^e,NS ^e ^g,NS ^e,NS ^e ^g,NS ^e ^g,NS ^e,NS ^e ^g,NS ^e,NS ^e,NS ^e,NS ^e,NS ^e ^g,significant difference,CN1CC(=O)N2[C@H](c3ccc4c(c3)OCO4)c3[nH]c4ccccc4c3C[C@@H]2C1=O [tadalafil],S ^d ^g,S ^d ^g,S ^d ^g,S ^d ^g,S ^d ^g,"significant DoE factors influencing solubility ([1]; fasted and fed study arms together (14 possible values per drug), significance ±4): no significant factors; significance of sodium oleate for solubility ([3]; combined arm, Figure 4, significance ±2, positive solubility impact): significant; statistical comparison of dual level fasted with published fasted equilibrium solubility [4]: significantly different; statistical significance of DoE factor lecithin on equilibrium solubility [6]: NS ^e; statistical significance of DoE factor monoglyceride on equilibrium solubility [6]: NS ^e; statistical significance of DoE factor pH on equilibrium solubility [6]: NS ^e; statistical significance of DoE factor sodium oleate on equilibrium solubility [6]: S ^d ^g; pKa ([7]; reported): 15"
S ^d,NS ^e ^g,S ^d,NS ^e ^g,NS ^e,S ^d,S ^d,NS ^e,NS ^e ^g,NS ^e,NS ^e,NS ^e ^g,NS ^e ^g,NS ^e ^g,no statistically significant difference,O=C1NC(=O)C(c2ccccc2)(c2ccccc2)N1 [phenytoin],S ^d ^g,S ^d ^g,S ^d,S ^d,S ^d ^g,"direction of pH effect on solubility (standardized effect) ([1]; fasted and fed study arms, Figure 3): negative effect; direction of cholesterol effect on solubility (standardized effect) ([1]; fasted arm, Figure 3): significant negative solubility effect; variability of equilibrium solubility ([3]; across DoE media, fasted or fed arm, Figures 1 and 2): low solubility variability; significant DoE factors influencing solubility [3]: no significant factors; significant two way factor interactions on solubility ([3]; combined arm): significant interactions; statistical comparison of dual level fasted with published fasted equilibrium solubility [4]: significantly different; statistical comparison of dual level fed with published fed equilibrium solubility ([4]; current fed arm vs published fed DoE): significantly different; statistical significance of DoE factor lecithin on equilibrium solubility [6]: NS ^e; statistical significance of DoE factor monoglyceride on equilibrium solubility [6]: S ^d ^g; statistical significance of DoE factor pH on equilibrium solubility [6]: S ^d ^g; statistical significance of DoE factor sodium oleate on equilibrium solubility [6]: S ^d ^g; pKa ([7]; no reference given): 8.1"
NS ^e,NS ^e ^g,S ^d,NS ^e ^g,S ^d,S ^d,NS ^e ^g,NS ^e,NS ^e ^g,NS ^e,NS ^e,NS ^e,NS ^e ^g,NS ^e,significant difference,COc1cc(C(=O)NS(=O)(=O)c2ccccc2C)ccc1Cc1cn(C)c2ccc(NC(=O)OC3CCCC3)cc12 [zafirlukast],S ^d ^g,S ^d ^g,S ^d,S ^d ^g,S ^d ^g,"direction of cholesterol effect on solubility (standardized effect) ([1]; fasted arm, Figure 3): positive effect; direction of monoglyceride effect on solubility (standardized effect) ([1]; fasted arm, Figure 3): negative effect; significant DoE factors influencing solubility [3]: no significant factors; significant two way factor interactions on solubility ([3]; combined arm): significant interactions; statistical significance of DoE factor lecithin on equilibrium solubility [6]: NS ^e; statistical significance of DoE factor monoglyceride on equilibrium solubility [6]: NS ^e; statistical significance of DoE factor pH on equilibrium solubility [6]: S ^d ^g; pKa ([7]; reported): 4"
